Experimental data from US9974773B2, “Stabilized oxymetazoline formulations and their uses” (Allergan, Inc., priority 2014, dated 2018).
Values joined by “and” are separate entries in the source; they are usually repeats but may differ in a detail not shown here. Equal values may be shown once. Where a name gives a salt, the structure may show the parent alone. Read-outs that look alike come from different tables or passages of the source.

Tests used:
[1] = Plasma oxymetazoline pharmacokinetics after dermal administration; assay type: in vivo; settings: human, topical or ocular, repeated dermal administration, once-daily or twice-daily, read-out: effective half-life (mean), range across groups
Experimental: Blood samples were drawn on days 1 and 28 at predose, 2, 4, 6, 8, 10, and 12 hours after the morning dose throughout the study. Additional trough samples were collected on days 2, 14, and 29. The final pharmacokinetic sample was collected on day 35 after all assessments were completed. Plasma was analyzed for oxymetazoline concentrations using a validated liquid chromatography-tandem mass spectrometry method with a lower limit of quantification of 10 pg/mL.
Noncompartmental analysis was performed to determine the maximum observed plasma concentration (Cmax), corresponding time to reach maximum observed plasma concentration (Tmax), area under the plasma concentration-time curve from time 0 to time t (AUC0-t), accumulation ratio (R0), and effective half-life (Teff) of oxymetazoline in plasma. These parameters were calculated, whenever possible. […]
At the selected timepoints, approximately 6 mL of blood was collected into prelabeled K2EDTA lavender top blood collection tubes and gently inverted at least 10 times to ensure adequate mixing of blood and anticoagulant. […] A minimum of 1.0 mL of the harvested plasma was transferred into 2 prelabeled cryovials and stored at −20° C. or below until analyzed. The samples were analyzed using a validated high performance liquid chromatography-tandem mass spectrometry (LC-MS/MS) method with a lower limit of quantitation (LLOQ) of 10 pg/mL. […]

[2] = system: patients with moderate to severe facial erythema associated with rosacea; assay type: in vivo; settings: for Discontinued: Adverse Event: mITT
Experimental: An adverse event could therefore be any unfavorable and unintended sign (including an abnormal laboratory finding), symptom, or disease temporally associated with the use of a medicinal (investigational) product, whether or not related to the medicinal (investigational) product. In addition, during the screening period, adverse events were assessed regardless of the administration of a pharmaceutical product.
A clinical determination was made of the intensity of an adverse event. The severity assessment for a clinical adverse event was completed using the following definitions as guidelines:
A determination was made of the relationship (if any) between an adverse event and the study drug or study procedure, as applicable. A causal relationship was present if a determination was made that there was a reasonable possibility that the adverse event may have been caused by the drug or study procedure.
Adverse events were coded using preferred terms and primary System Organ Class (SOC) from the Medical Dictionary for Regulatory Activities (MedDRA), version 15.1. Adverse events were collected both for the screening/baseline period (which were referred to as pretreatment adverse events [PTAEs]) and for the study period after treatment was initiated (which were referred to as postbaseline adverse events; ie, adverse events with start date from study day 1 through study exit). A treatment emergent adverse event (TEAE) was defined a postbaseline adverse event where there was no PTAE of the same MedDRA preferred term or the maximum severity during the postbaseline period was more severe than the maximal severity of any PTAE of the same MedDRA preferred term.
For each preferred term, the incidence of TEAEs was presented and summarized on a per-patient basis as follows: • by preferred term in descending order of incidence rate • by primary SOC in alphabetical order, and preferred term • by primary SOC in alphabetical order, preferred term, and severity (maximum severity)
The maximum severity of a TEAE experienced by a patient was determined by the most severe rating recorded on the eCRF for the patient's given TEAE. The incidence of TEAEs was provided for all TEAEs regardless of causality and for treatment-related TEAEs.

[3] = system: patients with moderate to severe facial erythema associated with rosacea; experiment: Facial dermal tolerability assessment; assay type: in vivo, human
Experimental: Facial dermal tolerability assessment included the investigator's assessments (dryness and scaling of the treatment area) and the patient's assessments (stinging/burning and pruritus [itching] of skin in the application area) as described below:
Facial dermal tolerability assessment were evaluated by investigators and patients on days 1 (pre-dose, hours 1, 2, 4, 6, 8, 10, and 12), 2 (predose), 14 (predose, hours 1, 2, 4, 6, 8, 10, and 12), 28 (pre-dose, hours 1, 2, 4, 6, 8, 10, and 12), 35, and 56. Investigator's assessments included dryness and scaling and patient's assessment included stinging/burning, and pruritus; each had 4-point scales: 0=none, 1=mild, 2=moderate, 3=severe.
The number and percent of patients with at least a 1 severity increase (worsening) from baseline for 1 or more visits was generated by treatment group for day 1, day 14, day 28, and from day 1 through day 28. Raw values were summarized using shift tables and frequency distributions by treatment group. In addition, analyses of raw values and change from baseline at post-baseline timepoints and visits were performed using descriptive statistics. Baseline was the pre-dose assessment on day 1.

[4] = all oxymetazoline-treated patients

## Cc1cc(C(C)(C)C)c(O)c(C)c1CC1=NCCN1 [Oxy, oxymetazoline hydrochloride]
[1]
  half-life: 18 to 28 h
[2]; BID
  Discontinued: Adverse Event: 6 (4.4) Number (%) of Patients
[2]; QD
  Discontinued: Adverse Event: 2 (1.5) Number (%) of Patients
[2]; all Oxy-treated patients
  patients who discontinued due to treatment-related application site adverse events: Seven and 7 patients
  patients with application site acne (TEAE): 1.50%
  patients with contact dermatitis (TEAE): 2.6%
[2]; all Oxy-treated patients, 7 severe events
  patients with severe treatment-related application site events: 3 patients
[2]; [4]
  patients who discontinued the study due to TEAEs: 8 patients
  patients with headache (TEAE): 4.9%
  patients with treatment-related application site adverse events: 28 patients
[2]; once-daily dosing
  patients with TEAEs: 33.8%
  patients with adverse events during the posttreatment period: 8.3%
  patients with adverse events during the treatment period: 28.6%
  patients with treatment-related TEAEs: 9.8%
[2]; once-daily group
  patients with discontinuation from the study due to adverse events: 1.5%
[2]; once-daily treatment groups
  patients who discontinued the study: 3.0%
[2]; twice-daily dosing
  patients with TEAEs: 32.6%
  patients with adverse events during the posttreatment period: 7.4%
  patients with adverse events during the treatment period: 26.7%
  patients with treatment-related TEAEs: 12.6%
[2]; twice-daily group
  patients who discontinued the study due to adverse events: 4.4%
[2]; twice-daily treatment groups
  patients who discontinued the study: 6.7%
[3]; once-daily, day 1
  patients with worsening of stinging/burning at the application site: 12.8%
[3]; once-daily, day 14
  patients with worsening of stinging/burning at the application site: 12.0%
[3]; once-daily, day 28
  patients with worsening of stinging/burning at the application site: 6.0%
[3]; twice-daily, day 1
  patients with worsening of stinging/burning at the application site: 10.4%
[3]; twice-daily, day 14
  patients with worsening of stinging/burning at the application site: 8.9%
[3]; twice-daily, day 28
  patients with worsening of stinging/burning at the application site: 1.5%
